Reference: patent US20040241708A1, “Recombinant vector for transforming strain to detect benzoic acid and derivatives thereof, transformant containing the recombinant vector, and method for detecting benzoic acid and derivatives thereof using the transformant” (priority 2003, published 2004)

Tested on: transformant EBNAG1 (E. coli RFM443/pNAG1, nagR-PnagG::luxCDABE)
Test: Detectability of transformant EBNAG1 on benzoic acid and derivatives (bioluminescence response)
Format: cell-based, Escherichia coli
Conditions: for minimal effective concentration: Escherichia coli, read-out: MDC (Minimum detection concentration); for bioluminescence intensity: EBNAG1, 0.1953125-12.5 mM, 3 hours after seeding, FIGS. 3a and 3b
Procedure: The EBNAG1 strain was cultivated in a 100 ml LB medium supplemented with 50 μg/ml ampicillin at 30° C. until the absorbance reached 0.08 (at 600 nm). 100 μl of aliquot was taken from the culture for the measurement of the bioluminescence intensity, and was then poured on each well of an opaque96-well plate [Microlite™, Thermo Labsystems, USA] containing chemicals to be tested (benzoic acid concentrations: 12.5, 6.25, 3.125, 1.5625, 0.78125, 0.390625 and 0.1953125 mM, and salicylic acid concentrations: 12.5, 6.25, 3.125, 1.5625, 0.78125, 0.390625 and 0.1953125 mM). The well plates were placed in a 96-well microtiter plate reader (MLX Microtiter® Plate Luminometer, DYNEX Technology, USA) to measure the bioluminescence intensity.
FIGS. 3a and 3b show the results of bioluminescent signals obtained from EBNAG1 after seeding benzoic acid and salicylic acid as a representative benzoic acid derivative at various concentrations, respectively.

Row | SMILES | minimal effective concentration [µM] | bioluminescence intensity
1 | O=C(O)c1ccc(O)cc1O [2,4-Dihydroxybenzoic acid] | 3130 | 
2 | O=C(O)c1ccc(O)c(O)c1 [3,4-Dihydroxybenzoic acid] | 6250 | 
3 | COc1ccc(CO)cc1OC [3,4-Dimethoxybenzylalcohol] | 390 | 
4 | O=C(O)c1cc(O)cc(O)c1 [3,5-Dihydroxybenzoic acid] | 3130 | 
5 | O=C(O)c1ccc(Cl)cc1O [4-Chlorosalicylic acid] | < 390 | 
6 | O=C(O)c1cc(Cl)ccc1O [5-Chlorosalicylic acid] | 390 | 
7 | O=C(O)c1ccccc1 [Benzoic acid] | 390 | increased in proportion to the benzoic acid concentrations
8 | O=C(O)c1ccccc1O [Salicylic acid] | 195 | increased in proportion to the salicylic acid concentrations
